Results from patent US12171732B2, “Compositions and use of N-chlorotaurine for treatment and prevention of respiratory infections” (priority 2021, dated 2024).
Read-outs that look alike come from different tables or passages of the source.

Key:
[1] = system: Influenza A/Singapore/Hongkong/2339/2000 (H1N1); assay type: cell-based, Influenza A virus
[2] = in vivo; cited from earlier work
[3] = system: SARS-CoV-2, clinical isolate; test: Virus inactivation assay with immunostaining readout (Vero/TMPRSS2/ACE2 cells); assay type: cell-based; details: 1% NCT, 37° C.
Experimental: (§1) FIG. 1C presents inactivation of SARS-Cov-2 (SARS-CoV-2, clinical isolate) by NCT. Virus suspension (SARS-CoV-2, clinical isolate) was incubated with 1% NCT or PBS for 1 min, 5 min, 7 min, 10 min, 20 min, and 30 min at 37° C. After inactivation of NCT and serial dilution, aliquots were added to Vero/TMPRSS2/ACE2 cells for 1 h in 96-well plates. Cells were washed, incubated for further 9 h, and fixed for Immunostaining (c) or RT-qPCR (d). In immunostaining, infected cells were visible as red spots and counted using an ImmunoSpot S6 Ultra-V reader and CTL analyser BioSpot® 5.0 software. Mean values±SD of three independent experiments.
(§2) Inactivation of SARS-CoV-2 wild type isolates from early 2020 was assessed by incubating stock virus with NCT for indicated time periods at 37° C. and then determining the remaining infectious particles using plaque assay or immunostaining as well as determining virus inactivation via RT-qPCR or TCID50. Exact incubation times of virus with NCT were ensured by adding met/his at the end of the incubation period, which inactivates NCT.

[4] = system: SARS-CoV-2; test: Treatment of hospitalized COVID-19 patients with NCT solution for inhalation; assay type: in vivo, human
Experimental: The effect of an inhalation solution of NCT-Na is tested in patients who suffer from COVID-19 (infection with SARS-CoV-2). The solution consists of 1% NCT sodium in distilled water.

[5] = system: Influenza A/California/Swine Origin Virus/2009 (H1N1pdm); assay type: cell-based; details: 1.0% NCT
[6] = system: SARS-CoV-2, clinical isolate; test: Virus inactivation assay with RT-qPCR readout (SARS-CoV-2 E Gene); assay type: cell-based; details: 1% NCT, 37° C., RT-qPCR (FIG. 1D)
Experimental: as §1
FIG. 1D presents inactivation of SARS-Cov-2 by NCT. After cell lysis and RNA extraction, one-step RT-qPCR assay was performed using the iTaq™ RT-PCR (BIO-RAD) kit and previously published primers and probes specific for detection of the SARS-CoV-2 E Gene on a CFX96™ real-time system (BIO-RAD). Mean values±SD of genome copies of three independent experiments. Detection limit 2.10 log10 RNA copies/ml (dotted line).

[7] = system: RSV long strain; assay type: cell-based, respiratory syncytial virus
[8] = system: SARS-CoV-2 BavPat1; test: Inactivation of SARS-CoV-2 by NCT, plaque titration; assay type: cell-based
Experimental: FIG. 1A presents inactivation of SARS-Cov-2 (BAvPat1) by NCT. Virus suspension (SARS-CoV-2 BavPat1) was incubated with 1.0% (55 mM) NCT, 0.1% (5.5 mM) NCT, 1.0% NCT with 5.0% peptone or PBS or 5.0% peptone for 5 min, 15 min, 30 min, or 60 min at 37° C., after which samples were diluted 1:1 in met/his solution for inactivation of NCT. Remaining infectious virus particles were determined using plaque titration. To control for inactivation of NCT by met/his, virus was added after dilution of 1.0% NCT with or without peptone in met/his. Mean values±SD of three to eight independent experiments in duplicates. The dotted line indicates the detection limit (0.84 log10). Data were statistically analyzed using a two-way ANOVA including a Dunnett's multiple comparison test to PBS controls. *p<0.05, **p<0.01, ***p<0.001, ****p<0.0001.
as §2, with “Exact incubation times of virus with NCT were ensured by adding met/his at the end of the incubation period, which inactivates NCT.” left out
With plaque assay readout, a significant reduction in infectious particles was detected after 15 min of incubation, when incubating SARS-CoV-2 with NCT in a buffered aqueous solution (FIG. 1A). […]

[9] = target: SARS-CoV-2 3C-like proteinase (Severe acute respiratory syndrome coronavirus 2, UniProt P0DTD1); test: Structural changes of 3C-like proteinase by NCT, mass spectrometry; assay type: biochemical; details: 1% NCT, 30 min, 37° C.
Excerpt: FIG. 5 presents Chlorination of tyrosines and histidines and oxidation of methionines and cysteines of SARS-CoV-2 3C-like proteinase by NCT.
Seven methionines and four cysteines were oxidized.

[10] = after the end of an inhalation of 1.0% NCT, cited from earlier work
[11] = system: SARS-CoV-2; assay type: in vivo, human
[12] = cited from earlier work
[13] = system: SARS-CoV-2 hCoV-19/Australia/VIC01/2020; test: Inactivation of SARS-CoV-2 by NCT, plaque titration; assay type: cell-based; details: 1.0% NCT in the presence of Vero cells, 37° C. (FIG. 1B)
Experimental: FIG. 1B presents inactivation of SARS-Cov-2 (hCoV-19/Australia/VIC01/2020) by NCT. Virus suspension (SARS-CoV-2 h CoV-19/Australia/VIC01/2020) was incubated with NCT or PBS or isopropanol (positive control) for 5 min, 10 min, 20 min, and 60 min at 37° C. and then diluted 1:1 in met/his for inactivation of NCT, followed by plaque titration. Mean values±SD of three independent experiments. Detection limit 3.11 log10 (dotted line).
as §2
With plaque assay readout, a significant reduction in infectious particles was detected after 15 min of incubation, when incubating SARS-CoV-2 with NCT in a buffered aqueous solution (FIG. 1A). The mild oxidizing activity of the test antiseptic may explain why it took as long as 15 min to reduce infectious particles. In the presence of Vero cells (FIG. 1B) or particularly 5.0% peptone (FIG. 1A), however, a significant reduction of infectious virus particles occurred already after 5 min of incubation with 1.0% NCT. […]

[14] = system: SARS-CoV-2; test: Prophylaxis of contact persons with 1% NCT nose/throat spray; assay type: in vivo, human
Experimental: NCT may also be applied as nose/throat spray/rinse solution for prevention/prophylaxis of worsening or contagiousity to other persons. Even in case of low or no symptoms, 1% NCT aqueous solution may be used as a nose spray (two-three puffs (about 0.1 ml/puff) per nostril during forced nasal inspiration) and/or throat spray (three-four puffs (about 0.1 ml/puff) in the back of the mouth to the throat). Alternatively, 1% NCT aqueous solution may be used as a nasal rinse (10 ml to 20 ml instilled for 30 seconds up to 1 minute) and/or throat gargling solution (10 ml to 20 ml for 30 seconds up to 1 minute). This may be repeated at least two times per day or after close contact with other persons.
Spouse, person. (Day 7 of spouse's infection) dose time and symptoms: 2:10 PM—No symptoms 8:25 PM—No symptoms. (Day 8 of spouse's infection) dose time and symptoms: 2:40 PM—No symptoms 11:30 PM—No symptoms. (Day 9 of spouse's infection) dose time and symptoms: 11:10 AM—No symptoms 7:15 P. No symptoms.

[15] = system: inoculated cell culture; test: MTT testing of cytotoxicity of inactivated NCT; assay type: cell-based; details: 0.1% NCT plus 0.1% met/his (inactivated NCT); PBS control 100.3±5.6
Excerpt: The antiviral activity was concentration-dependent. […] This was valid for all tests and viruses in this study.

[16] = system: Influenza A/Panama/2007/1999 (H3N2); assay type: cell-based, Influenza A virus; details: 1.0% NCT, within 5 min, plaque assay (FIG. 2A)

With `Cl.N` [Ammonium chloride, ammonium chloride, reference compound] the antiviral effect ([1]; ammonium chloride alone, up to 10 min incubation time) was “no antiviral effect”.

For `Cc1ccc(S(=O)(=O)[N-]Cl)cc1.[Na+]` [chloramine T], the “effects after inhalative application” value [2] is listed as “asthmatic and inflammatory symptoms”.

With `O=S(=O)(O)CCNCl` [NCT, N-chlorotaurine] the “reduction of infected cells” value ([3]; after 1 min (not significant, p=0.085)) was 50%, the “reduction of infected cells” value ([3]; after 5 min) was 20-80% and the “reduction of infected cells” value ([3]; after 7 min) was 81-91%. For the same compound, the “reduction of infected cells” value ([3]; after 10 min) was 81-97%, the “reduction of infected cells” value ([3]; after 20 min) was 96-99% and the “reduction of infected cells” value ([3]; after 30 min) was over 99%. For the same compound, the “course of disease during treatment” value ([4]; another 20 hospitalized patients, same treatment) was “no progression of the disease and lung failure was avoided”, the “outcome on leaving the hospital” value ([4]; eight hospitalized patients, 3 ml 1% NCT sodium inhaled 3 times a day for 1 week to 9 days via nebulizer) was “symptom-free or largely symptom-free” and the “time to reduction to the detection limit” value [5] was at most 1 min. For the same compound, the “log10 reduction of virus” value ([5]; within 1 min, plaque assay (FIG. 2B)) was 6 log10, the “reduction of genome copies” value [6] was “highly significant reduction of genome copies” and the “incubation time to significant titre reduction” value ([7]; 0.1% NCT, 37° C.) was 15 min. The “infectious RSV measurable” value ([7]; 1.0% NCT, after 15 minutes) was “Almost no detectable amount of infectious RSV”, the “log10 decrease of infectious virus titre” value ([7]; 1.0% NCT, within 5 minutes, 37° C. (FIG. 3)) was 4 log10 and the “effect of addition of ammonium chloride (NH4Cl) on activity against influenza viruses” value ([1]; 0.1% NCT plus 0.1% ammonium chloride versus 0.1% NCT (FIG. 2D)) was “significantly enhanced”. For the same compound, the “time to reduction to the detection limit” value ([1]; 1.0% NCT) was at most 1 min, the “log10 reduction of virus” value ([1]; 1.0% NCT, within 1 min, plaque assay (FIG. 2C)) was 6 log10 and the “incubation time after which a significant reduction of infectious virus particles occurred” value ([8]; 1.0% NCT in the presence of 5.0% peptone, 37° C. (FIG. 1A)) was 5 min. For the same compound, the “incubation time after which a significant reduction in infectious particles was detected” value ([8]; NCT in buffered aqueous solution, 37° C., plaque assay (FIG. 1A)) was 15 min, the cysteines oxidized [9] was “four” and the histidines chlorinated [9] was “two”. For the same compound, the methionines oxidized [9] was “Seven”, the tyrosines chlorinated [9] was 3 and the “further time until active chlorine vanishes completely” value ([10]; after decrease to traces) was 10 min. For the same compound, the “time for concentration of active chlorine to decrease to traces” value [10] was at most 1 min, the “PCR of nose and throat smear, positive after cycles” value ([11]; Example 1 patient, Day 0, two hours after start of 1% NCT nasal spray and gargling) was 30-32 cycles and the “PCR of throat/nostril swab, positive after cycles” value ([11]; Example 1 patient, Day 3, after 1% NCT therapy was stopped) was 25 cycles. For the same compound, the complaints ([11]; Example 1 patient, Day 4 to Day 11, after 1% NCT therapy Day 0 to Day 2) was “no complaints”, the “PCR of nose-throat smear, positive after cycles” value ([11]; Example 1 patient, Day 6) was 27 cycles and the “throat and nasal smear control PCR, weakly positive after cycles” value ([11]; Example 1 patient, Day 13 (max cycle number 45)) was 36.5 cycles. The “throat and nasal smear control PCR” value ([11]; Example 1 patient, Day 19) was “negative”, the “swab PCR ct value” ([11]; Example 2 patient, Day 1 evening, two hours after dosing, 14 cycles before NCT treatment) was 20-22 cycles and the swab result ([11]; Example 2 patient, after 10 days quarantine) was “swab negative”. The “swab PCR ct value” ([11]; Example 2 patient, evening of day 4, 1% NCT nose spray and gargling 3× daily) was 31-34 cycles, the “swab PCR ct value” ([11]; Example 2 patient, morning of Day 6, 14 hours after the last dosing of NCT) was 31-34 cycles and the symptoms ([11]; Example 4 patient, Day 10, 1% NCT nasal and throat spray since Day 4) was “No symptoms”. The systemic distribution ([12]; human, in vivo) was “not distributed systemically”, the adverse effects ([12]; inhaled NCT, humans, phase I, chlorine taste and occasional tickle in the throat) was “Only minor and transient adverse effects” and the “incubation time after which a significant reduction of infectious virus particles occurred” value [13] was 5 min. The “infection status of family members” value ([14]; Example 2: wife and three teenagers in the same home, 1% NCT nose and throat spray 3 times daily) was “remained negative”, the symptoms of spouse ([14]; Example 4: spouse, Day 7 to Day 9 of husband's infection) was “No symptoms” and the “infection status of persons with close contact to COVID-19 positive persons” value ([14]; several cases, use of the 1% NCT nasal spray) was “remained negative”. For the same compound, the MTT reduction [15] was 94.1±8.5 and the “log10 reduction of virus” value [16] was 2 log10.
